{"source": "patent US20210274780A1", "about": "“Disinfectant Composition Against the Novel Wuhan Corona Virus COVID-19” (priority 2020, published 2021)", "origin": "cited, not measured here", "key": {"[1]": {"tested_on": "adenoviruses"}, "[2]": {"tested_on": "Gram-positive bacteria"}, "[3]": {"tested_on": "polioviruses"}}}
{"smiles": "[H]/N=C(\\N/C(=N/[H])NCCCCCCNC(=N)NC(=N)Nc1ccc(Cl)cc1)Nc1ccc(Cl)cc1", "note": "[Chlorhexidine]", "values": [{"measurement": "effectiveness against adenoviruses", "setting": "[1]", "value": "ineffective"}, {"measurement": "effective concentration", "setting": "[2]", "value": "≥ 1", "unit": "µg/L"}, {"measurement": "effectiveness against polioviruses", "setting": "[3]", "value": "ineffective"}]}
